Test results taken from US11890287B2, “Therapeutic compounds and compositions for treating social disorders and substance use disorders” (Kinoxis Therapeutics Pty Ltd, priority 2015, dated 2024).

Assays:
Experiment in all cases: PDSP orthosteric binding screen
D1 = molecular target: T1, D1 (Homo sapiens, UniProt P21728)
T1 construct: Psychoactive Drug Screening Program (PDSP)
Source text: (§1) Comprehensive screening of affinity for the orthosteric binding sites for numerous receptors from the Psychoactive Drug Screening Program (PDSP) have failed as yet to identify a target, despite the powerful OT-like behavioural effects of the compound evident in vivo and the clear activation of brain OT systems evident from our Fos data.

M2 = molecular target: T2, M2 (Homo sapiens, UniProt P08172)
T2 construct: Psychoactive Drug Screening Program (PDSP)
Source text: as §1

Sigma 2 = test system: Sigma 2
Source text: as §1

NET = molecular target: T3, NET (Homo sapiens, UniProt P23975)
T3 construct: Psychoactive Drug Screening Program (PDSP)
Source text: as §1

M4 = molecular target: T4, M4 (Homo sapiens, UniProt P08173)
T4 construct: Psychoactive Drug Screening Program (PDSP)
T4 sequence (P08173 whole entry): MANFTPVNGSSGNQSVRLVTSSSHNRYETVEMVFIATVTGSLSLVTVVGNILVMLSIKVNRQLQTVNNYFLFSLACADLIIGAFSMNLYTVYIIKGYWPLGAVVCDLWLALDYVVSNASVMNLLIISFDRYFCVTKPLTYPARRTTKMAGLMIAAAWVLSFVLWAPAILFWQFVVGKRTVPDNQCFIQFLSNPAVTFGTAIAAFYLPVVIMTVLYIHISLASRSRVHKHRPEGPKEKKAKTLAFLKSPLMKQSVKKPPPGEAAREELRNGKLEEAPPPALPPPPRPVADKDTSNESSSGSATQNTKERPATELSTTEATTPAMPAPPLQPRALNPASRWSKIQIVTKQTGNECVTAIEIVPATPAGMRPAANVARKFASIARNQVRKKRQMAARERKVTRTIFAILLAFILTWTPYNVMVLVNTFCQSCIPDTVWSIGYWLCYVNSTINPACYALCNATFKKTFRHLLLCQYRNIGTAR
Source text: as §1

H2 = molecular target: T5, H2 (Homo sapiens, UniProt P25021)
T5 construct: Psychoactive Drug Screening Program (PDSP)
Source text: as §1

SERT = molecular target: T6, SERT (Homo sapiens, UniProt P31645)
T6 construct: Psychoactive Drug Screening Program (PDSP)
Source text: as §1

DAT = molecular target: T7, DAT (Homo sapiens, UniProt Q01959)
T7 construct: Psychoactive Drug Screening Program (PDSP)
Source text: as §1

Alpha2B = molecular target: T8, Alpha2B (Homo sapiens, UniProt P18089)
T8 construct: Psychoactive Drug Screening Program (PDSP)
Source text: as §1

5-ht5a = molecular target: T9, 5-ht5a (Homo sapiens, UniProt P47898)
T9 construct: Psychoactive Drug Screening Program (PDSP)
Source text: as §1

5-HT7 = molecular target: T10, 5-HT7 (Homo sapiens, UniProt P34969)
T10 construct: Psychoactive Drug Screening Program (PDSP)
T10 sequence (P34969 whole entry, species assumed): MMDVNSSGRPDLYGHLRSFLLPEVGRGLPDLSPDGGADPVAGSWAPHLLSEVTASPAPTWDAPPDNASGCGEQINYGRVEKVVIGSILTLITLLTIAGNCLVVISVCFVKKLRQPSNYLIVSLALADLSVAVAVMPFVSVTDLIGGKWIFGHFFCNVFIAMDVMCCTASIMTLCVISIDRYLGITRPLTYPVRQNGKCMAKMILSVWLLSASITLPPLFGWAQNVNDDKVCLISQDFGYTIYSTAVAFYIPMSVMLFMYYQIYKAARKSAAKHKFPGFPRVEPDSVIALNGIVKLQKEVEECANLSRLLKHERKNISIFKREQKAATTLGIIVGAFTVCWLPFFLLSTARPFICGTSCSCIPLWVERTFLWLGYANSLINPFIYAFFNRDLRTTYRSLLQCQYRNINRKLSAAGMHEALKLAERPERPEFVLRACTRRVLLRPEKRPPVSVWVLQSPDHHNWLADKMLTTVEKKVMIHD
Source text: as §1

5-HT1D = molecular target: T11, 5-HT1D (Homo sapiens, UniProt P28221)
T11 construct: Psychoactive Drug Screening Program (PDSP)
T11 sequence (P28221 whole entry, species assumed): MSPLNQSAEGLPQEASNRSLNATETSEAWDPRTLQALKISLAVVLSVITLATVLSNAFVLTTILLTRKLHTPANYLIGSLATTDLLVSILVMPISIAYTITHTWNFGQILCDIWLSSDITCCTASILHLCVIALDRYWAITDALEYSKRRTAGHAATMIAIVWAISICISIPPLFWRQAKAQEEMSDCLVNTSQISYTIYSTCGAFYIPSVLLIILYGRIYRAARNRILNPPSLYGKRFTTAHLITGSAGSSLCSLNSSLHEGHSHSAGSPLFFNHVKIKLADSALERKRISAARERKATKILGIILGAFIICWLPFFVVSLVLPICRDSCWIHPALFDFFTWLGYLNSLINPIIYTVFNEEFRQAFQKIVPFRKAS
Source text: as §1

PBR = molecular target: T12, PBR (Rattus norvegicus, UniProt P16257)
T12 construct: Psychoactive Drug Screening Program (PDSP)
Source text: as §1

Beta3 = molecular target: T13, Beta3 (Homo sapiens, UniProt P13945)
T13 construct: Psychoactive Drug Screening Program (PDSP)
Source text: as §1

M1 = molecular target: T14, M1 (Homo sapiens, UniProt P11229)
T14 construct: Psychoactive Drug Screening Program (PDSP)
T14 sequence (P11229 whole entry): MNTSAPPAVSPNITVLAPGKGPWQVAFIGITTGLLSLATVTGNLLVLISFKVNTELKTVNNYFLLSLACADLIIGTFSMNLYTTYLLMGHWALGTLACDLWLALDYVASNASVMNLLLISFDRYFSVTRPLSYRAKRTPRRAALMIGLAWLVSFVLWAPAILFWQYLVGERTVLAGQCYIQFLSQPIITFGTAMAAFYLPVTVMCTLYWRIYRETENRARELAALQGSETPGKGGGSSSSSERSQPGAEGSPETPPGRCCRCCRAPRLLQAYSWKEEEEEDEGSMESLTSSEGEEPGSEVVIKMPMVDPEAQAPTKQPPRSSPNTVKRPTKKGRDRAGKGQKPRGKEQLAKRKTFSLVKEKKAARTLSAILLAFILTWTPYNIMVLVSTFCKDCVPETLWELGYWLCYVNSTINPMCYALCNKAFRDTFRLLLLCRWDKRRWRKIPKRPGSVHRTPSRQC
Source text: as §1

Alpha2A = molecular target: T15, Alpha2A (Homo sapiens, UniProt P08913)
T15 construct: Psychoactive Drug Screening Program (PDSP)
Source text: as §1

5-ht1e = molecular target: T16, 5-ht1e (Homo sapiens, UniProt P28566)
T16 construct: Psychoactive Drug Screening Program (PDSP)
T16 sequence (P28566 whole entry, species assumed): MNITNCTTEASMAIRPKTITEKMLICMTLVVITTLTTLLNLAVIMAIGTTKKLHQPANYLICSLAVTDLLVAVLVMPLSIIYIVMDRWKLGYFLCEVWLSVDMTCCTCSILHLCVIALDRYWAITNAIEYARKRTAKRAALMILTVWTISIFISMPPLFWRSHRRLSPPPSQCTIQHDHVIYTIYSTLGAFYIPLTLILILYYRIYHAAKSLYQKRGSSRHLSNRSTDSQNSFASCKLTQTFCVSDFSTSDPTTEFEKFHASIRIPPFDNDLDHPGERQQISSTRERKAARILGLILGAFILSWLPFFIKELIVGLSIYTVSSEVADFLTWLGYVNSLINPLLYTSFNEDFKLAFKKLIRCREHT
Source text: as §1

D2 = molecular target: T17, D2 (Homo sapiens, UniProt P14416)
T17 construct: Psychoactive Drug Screening Program (PDSP)
Source text: as §1

H1 = molecular target: T18, H1 (Homo sapiens, UniProt P35367)
T18 construct: Psychoactive Drug Screening Program (PDSP)
Source text: as §1

M5 = molecular target: T19, M5 (Homo sapiens, UniProt P08912)
T19 construct: Psychoactive Drug Screening Program (PDSP)
Source text: as §1

H3 = molecular target: T20, H3 (Homo sapiens, UniProt Q9Y5N1)
T20 construct: Psychoactive Drug Screening Program (PDSP)
Source text: as §1

5-HT2C = molecular target: T21, 5-HT2C (Homo sapiens, UniProt P28335)
T21 construct: Psychoactive Drug Screening Program (PDSP)
Source text: as §1

5-HT6 = molecular target: T22, 5-HT6 (Homo sapiens, UniProt P50406)
T22 construct: Psychoactive Drug Screening Program (PDSP)
Source text: as §1

D4 = molecular target: T23, D4 (Homo sapiens, UniProt P21917)
T23 construct: Psychoactive Drug Screening Program (PDSP)
Source text: as §1

5-HT3 = molecular target: T24, 5-HT3 (Homo sapiens, UniProt P46098)
T24 construct: Psychoactive Drug Screening Program (PDSP)
Source text: as §1

Alpha2C = molecular target: T25, Alpha2C (Homo sapiens, UniProt P18825)
T25 construct: Psychoactive Drug Screening Program (PDSP)
Source text: as §1

GABAA = test system: GABAA
Source text: as §1

Alpha1B = molecular target: T26, Alpha1B (Homo sapiens, UniProt P35368)
T26 construct: Psychoactive Drug Screening Program (PDSP)
T26 sequence (P35368 whole entry): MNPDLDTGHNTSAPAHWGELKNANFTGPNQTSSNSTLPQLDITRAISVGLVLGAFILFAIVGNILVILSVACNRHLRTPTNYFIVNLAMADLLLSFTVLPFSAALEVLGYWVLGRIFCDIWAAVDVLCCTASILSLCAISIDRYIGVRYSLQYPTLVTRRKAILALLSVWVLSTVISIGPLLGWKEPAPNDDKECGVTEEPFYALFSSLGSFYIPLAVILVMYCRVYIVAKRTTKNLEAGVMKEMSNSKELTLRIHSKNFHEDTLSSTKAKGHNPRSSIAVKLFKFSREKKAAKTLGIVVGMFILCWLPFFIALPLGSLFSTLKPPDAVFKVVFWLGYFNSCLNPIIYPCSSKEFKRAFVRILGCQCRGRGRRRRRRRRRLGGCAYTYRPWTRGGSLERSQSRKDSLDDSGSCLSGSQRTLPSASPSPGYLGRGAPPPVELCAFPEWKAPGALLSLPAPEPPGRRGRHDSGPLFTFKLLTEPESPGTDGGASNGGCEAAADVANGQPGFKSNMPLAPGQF
Source text: as §1

M3 = molecular target: T27, M3 (Homo sapiens, UniProt P20309)
T27 construct: Psychoactive Drug Screening Program (PDSP)
Source text: as §1

D3 = molecular target: T28, D3 (Homo sapiens, UniProt P35462)
T28 construct: Psychoactive Drug Screening Program (PDSP)
Source text: as §1

Sigma 1 = test system: Sigma 1
Source text: as §1

MOR = molecular target: T29, MOR (Homo sapiens, UniProt P35372)
T29 construct: Psychoactive Drug Screening Program (PDSP)
Source text: as §1

Alpha1D = molecular target: T30, Alpha1D (Homo sapiens, UniProt P25100)
T30 construct: Psychoactive Drug Screening Program (PDSP)
T30 sequence (P25100 whole entry): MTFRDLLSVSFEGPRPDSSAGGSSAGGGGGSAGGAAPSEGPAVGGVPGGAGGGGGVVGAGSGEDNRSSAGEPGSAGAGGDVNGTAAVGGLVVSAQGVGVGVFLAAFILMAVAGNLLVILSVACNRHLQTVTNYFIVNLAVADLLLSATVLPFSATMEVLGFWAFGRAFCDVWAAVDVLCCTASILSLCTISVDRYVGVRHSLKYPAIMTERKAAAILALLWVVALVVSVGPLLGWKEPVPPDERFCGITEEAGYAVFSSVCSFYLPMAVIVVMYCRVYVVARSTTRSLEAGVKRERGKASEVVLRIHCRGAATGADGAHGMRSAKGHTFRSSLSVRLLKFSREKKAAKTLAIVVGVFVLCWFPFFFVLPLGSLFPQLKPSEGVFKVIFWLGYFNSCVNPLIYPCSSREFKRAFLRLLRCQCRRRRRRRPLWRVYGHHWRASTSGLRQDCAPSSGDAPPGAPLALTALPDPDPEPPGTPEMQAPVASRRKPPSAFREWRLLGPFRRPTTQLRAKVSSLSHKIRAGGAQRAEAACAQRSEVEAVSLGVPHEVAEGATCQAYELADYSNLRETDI
Source text: as §1

D5 = molecular target: T31, D5 (Homo sapiens, UniProt P21918)
T31 construct: Psychoactive Drug Screening Program (PDSP)
Source text: as §1

KOR = molecular target: T32, KOR (Homo sapiens, UniProt P41145)
T32 construct: Psychoactive Drug Screening Program (PDSP)
Source text: as §1

5-HT1A = molecular target: T33, 5-HT1A (Homo sapiens, UniProt P08908)
T33 construct: Psychoactive Drug Screening Program (PDSP)
Source text: as §1

5-HT2B = molecular target: T34, 5-HT2B (Homo sapiens, UniProt P41595)
T34 construct: Psychoactive Drug Screening Program (PDSP)
Source text: as §1

Beta1 = molecular target: T35, Beta1 (Homo sapiens, UniProt P08588)
T35 construct: Psychoactive Drug Screening Program (PDSP)
T35 sequence (P08588 whole entry): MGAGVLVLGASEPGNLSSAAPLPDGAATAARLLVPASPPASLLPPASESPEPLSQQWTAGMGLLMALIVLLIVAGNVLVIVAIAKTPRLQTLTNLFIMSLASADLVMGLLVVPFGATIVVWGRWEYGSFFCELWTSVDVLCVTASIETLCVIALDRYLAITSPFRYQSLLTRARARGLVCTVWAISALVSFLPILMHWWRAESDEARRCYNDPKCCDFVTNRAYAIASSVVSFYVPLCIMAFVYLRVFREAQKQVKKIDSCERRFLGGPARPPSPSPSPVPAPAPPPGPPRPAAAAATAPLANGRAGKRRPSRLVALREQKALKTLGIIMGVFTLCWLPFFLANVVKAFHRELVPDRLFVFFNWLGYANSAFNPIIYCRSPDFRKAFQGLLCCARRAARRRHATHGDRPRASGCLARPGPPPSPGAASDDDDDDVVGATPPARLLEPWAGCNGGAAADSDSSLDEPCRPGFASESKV
Source text: as §1

Beta2 = molecular target: T36, Beta2 (Homo sapiens, UniProt P07550)
T36 construct: Psychoactive Drug Screening Program (PDSP)
T36 sequence (P07550 whole entry): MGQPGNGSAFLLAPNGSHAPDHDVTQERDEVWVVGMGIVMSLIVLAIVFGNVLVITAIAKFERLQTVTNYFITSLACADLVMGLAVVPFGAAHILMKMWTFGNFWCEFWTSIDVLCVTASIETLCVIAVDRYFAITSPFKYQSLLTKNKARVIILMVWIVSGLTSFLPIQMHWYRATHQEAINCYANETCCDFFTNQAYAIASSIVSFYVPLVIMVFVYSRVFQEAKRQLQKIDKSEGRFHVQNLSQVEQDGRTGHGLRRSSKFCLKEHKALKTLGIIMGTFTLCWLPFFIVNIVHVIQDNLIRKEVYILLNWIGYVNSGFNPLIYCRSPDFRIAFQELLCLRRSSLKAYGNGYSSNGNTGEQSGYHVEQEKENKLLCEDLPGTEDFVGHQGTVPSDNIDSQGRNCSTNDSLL
Source text: as §1

DOR = molecular target: T37, DOR (Homo sapiens, UniProt P41143)
T37 construct: Psychoactive Drug Screening Program (PDSP)
T37 sequence (P41143 whole entry): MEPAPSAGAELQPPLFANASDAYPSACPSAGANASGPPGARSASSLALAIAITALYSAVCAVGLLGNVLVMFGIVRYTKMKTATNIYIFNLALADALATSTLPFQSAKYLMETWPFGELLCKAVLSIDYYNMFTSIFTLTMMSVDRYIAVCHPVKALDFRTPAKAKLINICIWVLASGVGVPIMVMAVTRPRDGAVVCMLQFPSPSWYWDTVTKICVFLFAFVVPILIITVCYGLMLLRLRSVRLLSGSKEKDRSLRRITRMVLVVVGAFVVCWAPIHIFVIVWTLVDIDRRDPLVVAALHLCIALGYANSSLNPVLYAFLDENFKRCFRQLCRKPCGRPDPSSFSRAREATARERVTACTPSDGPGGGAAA
Source text: as §1

BZP Rat Brain Site = test system: BZP Rat Brain Site
Source text: as §1

5-HT1B = molecular target: T38, 5-HT1B (Homo sapiens, UniProt P28222)
T38 construct: Psychoactive Drug Screening Program (PDSP)
T38 sequence (P28222 whole entry, species assumed): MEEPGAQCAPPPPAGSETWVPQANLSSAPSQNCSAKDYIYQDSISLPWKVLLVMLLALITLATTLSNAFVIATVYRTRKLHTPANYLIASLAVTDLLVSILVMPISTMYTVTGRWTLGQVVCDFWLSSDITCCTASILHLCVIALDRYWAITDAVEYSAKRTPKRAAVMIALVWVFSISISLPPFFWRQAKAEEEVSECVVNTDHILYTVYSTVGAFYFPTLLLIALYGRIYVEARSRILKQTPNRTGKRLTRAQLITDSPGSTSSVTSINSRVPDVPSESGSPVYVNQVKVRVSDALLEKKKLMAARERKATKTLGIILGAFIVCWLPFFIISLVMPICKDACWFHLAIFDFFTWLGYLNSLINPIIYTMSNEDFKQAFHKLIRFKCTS
Source text: as §1

5-HT2A = molecular target: T39, 5-HT2A (Homo sapiens, UniProt P28223)
T39 construct: Psychoactive Drug Screening Program (PDSP)
Source text: as §1

Cl.Cn1ncc2c1Nc1ccccc1NC2 [SOC-1]
no notable affinity: affinity for D1 (D1) | affinity for M2 (M2) | affinity for Sigma 2 (Sigma 2) | affinity for NET (NET) | affinity for M4 (M4) | affinity for H2 (H2) | affinity for SERT (SERT) | affinity for DAT (DAT) | affinity for Alpha2B (Alpha2B) | affinity for 5-ht5a (5-ht5a) | affinity for 5-HT7 (5-HT7) | affinity for 5-HT1D (5-HT1D) | affinity for PBR (PBR) | affinity for Beta3 (Beta3) | affinity for M1 (M1) | affinity for Alpha2A (Alpha2A) | affinity for 5-ht1e (5-ht1e) | affinity for D2 (D2) | affinity for H1 (H1) | affinity for M5 (M5) | affinity for H3 (H3) | affinity for 5-HT2C (5-HT2C) | affinity for 5-HT6 (5-HT6) | affinity for D4 (D4) | affinity for 5-HT3 (5-HT3) | affinity for Alpha2C (Alpha2C) | affinity for GABAA (GABAA) | affinity for Alpha1B (Alpha1B) | affinity for M3 (M3) | affinity for D3 (D3) | affinity for Sigma 1 (Sigma 1) | affinity for MOR (MOR) | affinity for Alpha1D (Alpha1D) | affinity for D5 (D5) | affinity for KOR (KOR) | affinity for 5-HT1A (5-HT1A) | affinity for 5-HT2B (5-HT2B) | affinity for Beta1 (Beta1) | affinity for Beta2 (Beta2) | affinity for DOR (DOR) | affinity for BZP Rat Brain Site (BZP Rat Brain Site) | affinity for 5-HT1B (5-HT1B) | affinity for 5-HT2A (5-HT2A)
